{"source": "patent US7348305B2", "about": "“Inhibitor of cardiac tachyarrhythmias” (Department of Veterans Affairs, Rehabilitation, priority 2003, dated 2008)", "key": {"[1]": {"system": "β-adrenergic receptor kinase (βARK)", "test": "βARK immunoblot of EBZ tissue 24 hr after LAD ligation (Model 1)", "format": "in vivo, dog", "conditions": "bortezomib pretreated dog versus saline control, 24-hour infarct", "method": "βARK immunoblots were used to estimate βARK expression (Yu et al., 2000).\nWestern Blot Analysis: Assessment of βARK content was conducted using standard SDS-PAGE and immunoblot techniques. Samples containing 100 μg of protein from myocardial extracts were electrophoresed using 10% SDS-PAGE and transferred to nitrocellulose membranes. The membrane was incubated with monoclonal anti-βARK (Upstate Biotechnology, Inc, Lake Placid, N.Y.), followed by exposure to peroxidase-linked anti-mouse IgG. Antibody binding was detected by a chemiluminescent method (ECL, Amersham Biosciences Corp, Piscataway, N.J.). Quantification of immunoreactive proteins was performed by densitometric scanning and with Image QuaNT software (Molecular Dynamics).\nβ-ARK, Proteasome and Ubiquitin Expression Assays: β-ARK, ubiquitinated β-ARK and proteasome in EBZ and RS tissues was determined by Western blot analysis. Samples were adjusted after protein concentration was assayed (BCA, Pierce Chemicals) to provide identical loads. 100 μg protein was combined with equal volume of SDS sample buffer, and electrophoresed on a 10% polyacrylamide gel. The blocked membranes were incubated with mouse anti β-ARK monoclonal antibody (Santa Cruz Biotechnology, Santa Cruz, Calif.) for 1-h at room temperature followed by anti-mouse IgG coupled to horseradish peroxidase and developed using an ECL western blotting kit (Amersham). The bands were scanned, stripped and reprobed with mouse anti-ubiquitin antibody (Santa Cruz Biotechnology, Santa Cruz, Calif.). The membrane was rescanned, stripped a second time and reprobed with rabbit anti-proteasome 20S C2 subunit polyclonal antibody (A.G. Scientific, Inc. CA). A separate control gel was included that was similarly treated, but reprobed with the identical Ab and band quality and density compared to the previous data obtained before stripping. Quantitation of immunoreactive bands was performed by densitometric scanning using ImageQuant software (Molecular Dynamics)."}, "proteasome [2]": {"system": "proteasome", "test": "Proteasome chymotrypsin-like peptidase activity in packed whole blood cells after injection", "format": "in vivo, dog", "conditions": "0.175 mg/kg, 1 hr before and 8 hr after LAD ligation; 1-24 hr after first injection; n=4", "method": "(§1) Whole blood was measured at each time interval (FIGS. 29A and 29B), and ischemic myocardial tissue proteasome activity was measured at the final time interval (FIG. 30).\n(§2) Proteasome activity: Activity was determined by proteasome chymotrypsin-like peptidase activity assay. Both cardiac (all groups) and whole blood cell (groups 4 and 5) proteasome activity was assayed. 30 mg frozen cardiac tissue was powdered in liquid nitrogen and sonicated in 0.5 ml buffer. Samples were then centrifuged for 30 min at 10,000 g at 4° C. and the supernatant was used for the assay. For preparing whole blood cell, heparinized blood was washed one time with saline and twice with cold PBS. The cells were lysed with EDTA (5 mM, pH 8.0) for 1 hr and centrifuged at 6600 g for 10 min at 4° C. and the supernatant was used for the assay. 0.4 mM Suc-Ala-Ala-Phe-MAC (Bachem California) was used as substrate. […] The time course for fluorescence was measured using a VICTOR3 Multilabel Counter (Perkin Elmer, Inc) at time 0 and every 5 min for 1 h to estimate the MAC liberated (excitation 380 nm, emission 460 nm). Slopes and intercepts were calculated using Microsoft Excel. Final results were expressed as fluorescence units/μg protein/min."}, "proteasome [3]": {"system": "proteasome", "test": "Proteasome chymotrypsin-like peptidase activity in myocardial tissue (RS, EBZ, INF) after injection", "format": "in vivo, dog", "conditions": "0.175 mg/kg, INF tissue 23-hr after LAD ligation, n=4, control tissues averaged 45 FU/100 μg protein/min", "method": "as §1, §2"}, "[4]": {"system": "ventricular tachyarrhythmias following LAD coronary artery ligation", "test": "Model 1: two-stage LAD coronary artery ligation, Holter EKG monitoring 2-24 hr (ventricular triplets, sustained VT/VF, death)", "format": "in vivo, dog", "conditions": "for fastest ventricular triplet rate observed per hour after LAD ligation (FIG. 18, FIG. 32): 4 to 24 hr after LAD ligation; for mortality (dogs died of group): 24 hr after LAD ligation, etanercept 2 mg/kg at -24 and -1 hr, bortezomib 0.0875 mg/kg at -1 and +6 hr, anakinra 10 mg/kg at -1 and +12 hr, control 4 of 10, preliminary", "method": "The two-stage ligation procedure results in a very low incidence of ventricular fibrillation (<5-10%) during the initial 6 hours following coronary artery occlusion (Harris et al., 1951). Almost all ventricular fibrillation occurs during the initial 30 minutes with a high proportion of successful defibrillation. Ambulatory EKG monitoring is performed over the 2-24 hr period following coronary artery ligation. During the 6-24 hr period, a 25-40% incidence of rapid monomorphic ventricular tachycardia (385±15/min) leading to ventricular fibrillation is observed at 13.3±0.8 hours post-LAD ligation (FIG. 1), with a mean duration of monomorphic ventricular tachycardia preceding ventricular fibrillation of 66±7 sec. When provocative ventricular pacing is performed at 24 hours, however, the reentrant substrate supporting sustained ventricular tachycardia is present in more than 80% of the surviving dogs with no difference in rate between spontaneous and pacing-induced sustained monomorphic ventricular tachycardias (FIG. 3).\nIn the 24-hr Infarct (Model 1) Studies, each control and etanercept pretreated animal was monitored for ventricular arrhythmias using a Holter 2-lead recording for the duration of time following LAD ligation. […] In the saline control group, 4 animals died at 11-24 hours post ligation. […]\nModel 1: Electrophysiologic correlates of myocardial infarction over a 24-hr period. Eighteen 15-22 kg male mongrel dogs were anesthetized with IV sodium pentobarbital (30 mg/kg). A cuffed endotracheal tube was inserted and the animals were ventilated with room air using a volume-cycled respirator. […] The dogs were extubated and allowed to awaken in a temperature-controlled, humidified small animal post-operative recovery unit. They were given nalbuphine 0.2 mg/kg for post-operative analgesia. During the 2-24 hr period following LAD ligation, Holter monitoring was performed and the two-lead EKG was recorded on magnetic tape. Dogs were re-anesthetized with sodium pentobarbital at 24-hr. The thoracotomy was reopened and the heart was removed and perfused with ice-cold Tyrode's buffer via the left main coronary artery. The outer 0.5-1.5 mm EBZ tissue overlying the infarct was shaved and a longitudinal sample of tissue from the LAD region was stained with triphenyltetrazolium chloride (0.1%) to determine viability of the EBZ. Triphenyltetrazolium (TTZ) forms a brick-red precipitate in the presence of active intracellular dehydrogenases, delineating vital tissue. Non-viable tissues are not stained and remain a pale color. […] Tissue samples from the RS, the EBZ and the infarct tissue were dissected rapidly on an ice-cold surface, placed in freezer vials, and frozen in liquid nitrogen. These samples were then stored at −70° C. for later assay.\nEKG Analysis: Full disclosure EKG records were obtained at 10 mm/sec for the entire 2-24 hour post-occlusion period. All measurements and calculations were made by direct visual observation and manual counting.\nAnti-TNFα Treatment: A dosage of 2 mg/kg hTNFR:Fc (supplied as etanercept, Amgen, Inc, Thousand Oaks, Calif.) or saline were injected IV into a forepaw vein at 24-hr and again 1-hr prior to LAD ligation. […] This dosage was used after consultation with the pharmaceutical corporate pharmacology section and based on unpublished internal data that this dosage would provide maximal sequestration of tissue and circulating TNFα."}, "[5]": {"biological_target": "β-adrenergic receptors in epicardium", "test": "Action potential shortening with isoproterenol in epicardium", "set-up": "species or system dog", "description": "This information is consistent with increased β-ARK-1 activity and decreased β-adrenergic receptor sensitivity in ventricular myocardium with chronic catecholamine administration or the converse, a decrease in β-ARK-1 with prolonged β-adrenergic receptor blockade (Pye et al., 2003)."}, "[6]": {"biological_target": "β-adrenergic receptor / adenylate cyclase", "conditions": "read-out: mean EC50, isoproterenol-AC activity, SEM, n=4", "procedure": "FIG. 10 illustrates an isoproterenol-AC activity dose-response curve in EBZ and RS tissue obtained 24 hours after LAD ligation. Data are shown for 1 of 4 experiments. Each point is mean of duplicate samples."}, "[7]": {"system": "ventricular tachyarrhythmias following LAD coronary artery ligation", "conditions": "nadolol-treated dogs (Patterson et al., 1986), cited from earlier work"}}, "note": "Entries after “also recorded” stand apart in the source; their conditions may differ. Read-outs that look alike come from different tables or passages of the source."}
{"compound": "CC(C)C[C@H](NC(=O)[C@H](Cc1ccccc1)NC(=O)c1cnccn1)B(O)O", "note": "[bortezomib]", "values": [{"measurement": "protection against loss of βARK (GRK2) protein in EBZ, Western immunoblot (FIG. 34)", "setting": "[1]", "result": "marked protection against loss of βARK protein; also recorded: significant protection against loss of GRK2 expression"}, {"measurement": "packed whole blood proteasome activity after injection", "setting": "proteasome [2]", "result": "significant decrease in proteasome activity"}, {"measurement": "myocardial tissue proteasome activity 24-hr after first injection", "setting": "proteasome [3]", "result": "decreased from control tissues"}, {"measurement": "fastest ventricular triplet rate observed per hour after LAD ligation (FIG. 18, FIG. 32)", "setting": "[4]", "result": "marked decrease"}, {"measurement": "mortality (dogs died of group)", "setting": "[4]", "result": "0 of 6"}, {"measurement": "very rapid (≧360 bpm) ventricular triplets versus control (FIG. 31B)", "setting": "[4]; etanercept 2 mg/kg, bortezomib 0.0875 mg/kg", "result": "significant descrease; also recorded: no triplets in this range"}]}
{"compound": "CC(C)NCC(O)c1ccc(O)c(O)c1", "note": "(centres unmarked) [isoproterenol]", "values": [{"measurement": "EC50", "setting": "[5]; control normal tissue", "result": 0.47, "unit": "nM"}, {"measurement": "EC50", "setting": "[5]; remote site normal tissue, 24 hours post LAD ligation", "result": 14.3, "unit": "nM"}, {"measurement": "EC50", "setting": "[6]; EBZ tissue 24 hours after LAD ligation", "result": "18 ± 8.9", "unit": "nM"}, {"measurement": "EC50", "setting": "[6]; RS tissue 24 hours after LAD ligation", "result": "73 ± 22", "unit": "nM"}]}
{"compound": "CC(C)(C)NCC(O)COc1cccc2c1CC(O)C(O)C2", "note": "(centres unmarked) [nadolol]", "values": [{"measurement": "incidence of sudden death, 2-24 hr after coronary artery ligation", "setting": "[7]; FIG. 6", "result": "reduce the incidence of sudden death"}, {"measurement": "rate and number of rapid ventricular triplets, 2-24 hr after coronary artery ligation", "setting": "[7]; FIGS. 7 and 8", "result": "reduce both the rate and number of rapid ventricular triplets"}, {"measurement": "incidence of pacing-induced sustained monomorphic reentrant tachycardia in surviving animals at 24 hours", "setting": "[7]", "result": "without reducing the incidence"}, {"measurement": "infarct mass", "setting": "[7]", "result": "without altering infarct mass"}]}
{"compound": "anakinra: interleukin-1 antagonist (IL-1 inhibitor)", "values": [{"measurement": "fastest ventricular triplet rate observed per hour after LAD ligation (FIG. 18, FIG. 32)", "setting": "[4]", "result": "no significant difference between etancercept and anakinra"}, {"measurement": "mortality (dogs died of group)", "setting": "[4]", "result": "1 of 7"}, {"measurement": "rapid (>300 bpm) ventricular triplets per hour versus control (FIG. 31A)", "setting": "[4]; etanercept 2 mg/kg, bortezomib 0.0875 mg/kg, anakinra 10 mg/kg", "result": "relatively low until 8 hours after LAD and then rose rapidly"}]}
